Experimental data as given in PubChem BioAssay AID2060625 (Molecular Pharmacology Branch, DTP, NCI, 2025).

The molecules below were run on 186277-243-T-J2-PDC spheroids with HUVEC/MSC, viability (assay: Anticancer human tumor 186277-243-T-J2-PDC patient-derived colon adenocarcinoma cell line growth inhibition [CLK]). Settings: second compound 0.316 µM; first compound 0.316 µM; active compounds read low.
Procedure, shortened: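 Multi-cell-type spheroids combined patient-derived tumor cells with HUVEC endothelial cells and human mesenchymal stem cells. Paired agents were dosed in half-log steps down from about clinical Cmax, or from 10 microM where Cmax was unknown.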
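Also: compound exposure lasted seven days before readout; 100% = DMSO vehicle control wells.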

Q: `C#Cc1c(F)ccc2cc(O)cc(-c3ncc4c(N5CC6CCC(C5)N6)nc(OCC56CCCN5CC(F)C6)nc4c3F)c12` (stereo unspecified) + CNC(=O)c1ccc(Nc2nc(OC3CCCC3)c3c(-c4ccc5nc(C)oc5c4)c[nH]c3n2)c(OC)c1 was tested. Which viability, T/C did it give?
A: 9.98%

Q: Which viability, T/C does the source give for `C=C(F)C(=O)N1CCN(c2nc(OCC3CCCN3C)nc3c2CCN(c2cccc4cccc(Cl)c24)C3)CC1CC#N` (stereo unspecified) + CN1CCN(c2cc(C(=O)Nc3cc4cc(-c5cnn(C)c5)ccc4cn3)ccn2)CC1 here?
A: 30%

Same assay, conditions: second compound 0.316 µM; first compound 1 µM; active compounds read low

Q: Which viability, T/C does the source give for `COc1c(OCCCN2CCOCC2)ccc2c3n(c(=NC(=O)c4cnc(N)nc4)nc12)CCN3` + CNC(=O)c1ccc(Nc2nc(OC3CCCC3)c3c(-c4ccc5nc(C)oc5c4)c[nH]c3n2)c(OC)c1 here?
A: 3.73%

Q: Which viability, T/C does the source give for `O=C(c1cc(Cc2n[nH]c(=O)c3ccccc23)ccc1F)N1CCN(C(=O)C2CC2)CC1` + CNC(=O)c1ccc(Nc2nc(OC3CCCC3)c3c(-c4ccc5nc(C)oc5c4)c[nH]c3n2)c(OC)c1 here?
A: 56.7%

Q: Which viability, T/C does the source give for `COC1C=CCC(C)C(C)S(=O)(=O)NC(=O)c2ccc3c(c2)N(CC2CCC21)CC1(CCCc2cc(Cl)ccc21)CO3` (stereo unspecified) + CN1CCN(c2cc(C(=O)Nc3cc4cc(-c5cnn(C)c5)ccc4cn3)ccn2)CC1 here?
A: 5.75%

Q: With `C#Cc1c(F)ccc2cc(O)cc(-c3ncc4c(N5CC6CCC(C5)N6)nc(OCC56CCCN5CC(F)C6)nc4c3F)c12` (stereo unspecified) + CNC(=O)c1ccc(Nc2nc(OC3CCCC3)c3c(-c4ccc5nc(C)oc5c4)c[nH]c3n2)c(OC)c1 as the molecule, how does the viability, T/C read?
A: 7.75%

Q: With `C=C(F)C(=O)N1CCN(c2nc(OCC3CCCN3C)nc3c2CCN(c2cccc4cccc(Cl)c24)C3)CC1CC#N` (stereo unspecified) + CN1CCN(c2cc(C(=O)Nc3cc4cc(-c5cnn(C)c5)ccc4cn3)ccn2)CC1 as the molecule, how does the viability, T/C read?
A: 35%

Same assay, conditions: second compound 0.316 µM; first compound 3.16 µM; active compounds read low

Q: For `O=C(c1cc(Cc2n[nH]c(=O)c3ccccc23)ccc1F)N1CCN(C(=O)C2CC2)CC1` + CNC(=O)c1ccc(Nc2nc(OC3CCCC3)c3c(-c4ccc5nc(C)oc5c4)c[nH]c3n2)c(OC)c1, which viability, T/C is on record?
A: 57.3%

Q: With `COC1C=CCC(C)C(C)S(=O)(=O)NC(=O)c2ccc3c(c2)N(CC2CCC21)CC1(CCCc2cc(Cl)ccc21)CO3` (stereo unspecified) + CN1CCN(c2cc(C(=O)Nc3cc4cc(-c5cnn(C)c5)ccc4cn3)ccn2)CC1 as the molecule, how does the viability, T/C read?
A: 3.04%

Q: How did the viability, T/C turn out when `C#Cc1c(F)ccc2cc(O)cc(-c3ncc4c(N5CC6CCC(C5)N6)nc(OCC56CCCN5CC(F)C6)nc4c3F)c12` (stereo unspecified) + CNC(=O)c1ccc(Nc2nc(OC3CCCC3)c3c(-c4ccc5nc(C)oc5c4)c[nH]c3n2)c(OC)c1 was run?
A: 6.06%

Q: How did the viability, T/C turn out when `C=C(F)C(=O)N1CCN(c2nc(OCC3CCCN3C)nc3c2CCN(c2cccc4cccc(Cl)c24)C3)CC1CC#N` (stereo unspecified) + CN1CCN(c2cc(C(=O)Nc3cc4cc(-c5cnn(C)c5)ccc4cn3)ccn2)CC1 was run?
A: 32%

Same assay, conditions: second compound 0.316 µM; first compound 10 µM; active compounds read low

Q: For `O=C(c1cc(Cc2n[nH]c(=O)c3ccccc23)ccc1F)N1CCN(C(=O)C2CC2)CC1` + CNC(=O)c1ccc(Nc2nc(OC3CCCC3)c3c(-c4ccc5nc(C)oc5c4)c[nH]c3n2)c(OC)c1, which viability, T/C is on record?
A: 57.6%

Q: `COC1C=CCC(C)C(C)S(=O)(=O)NC(=O)c2ccc3c(c2)N(CC2CCC21)CC1(CCCc2cc(Cl)ccc21)CO3` (stereo unspecified) + CN1CCN(c2cc(C(=O)Nc3cc4cc(-c5cnn(C)c5)ccc4cn3)ccn2)CC1 was tested. Which viability, T/C did it give?
A: 1.3%

Q: How did the viability, T/C turn out when `C#Cc1c(F)ccc2cc(O)cc(-c3ncc4c(N5CC6CCC(C5)N6)nc(OCC56CCCN5CC(F)C6)nc4c3F)c12` (stereo unspecified) + CNC(=O)c1ccc(Nc2nc(OC3CCCC3)c3c(-c4ccc5nc(C)oc5c4)c[nH]c3n2)c(OC)c1 was run?
A: 5.84%

Q: `C=C(F)C(=O)N1CCN(c2nc(OCC3CCCN3C)nc3c2CCN(c2cccc4cccc(Cl)c24)C3)CC1CC#N` (stereo unspecified) + CN1CCN(c2cc(C(=O)Nc3cc4cc(-c5cnn(C)c5)ccc4cn3)ccn2)CC1 was tested. Which viability, T/C did it give?
A: 1.64%

Same assay, conditions: second compound 1 µM; first compound 0.00316 µM; active compounds read low

Q: Which viability, T/C does the source give for `COc1c(OCCCN2CCOCC2)ccc2c3n(c(=NC(=O)c4cnc(N)nc4)nc12)CCN3` + CNC(=O)c1ccc(Nc2nc(OC3CCCC3)c3c(-c4ccc5nc(C)oc5c4)c[nH]c3n2)c(OC)c1 here?
A: 17.2%

Same assay, conditions: second compound 1 µM; first compound 0.01 µM; active compounds read low

Q: With `COc1c(OCCCN2CCOCC2)ccc2c3n(c(=NC(=O)c4cnc(N)nc4)nc12)CCN3` + CNC(=O)c1ccc(Nc2nc(OC3CCCC3)c3c(-c4ccc5nc(C)oc5c4)c[nH]c3n2)c(OC)c1 as the molecule, how does the viability, T/C read?
A: 14.2%

Same assay, conditions: second compound 1 µM; first compound 0.0316 µM; active compounds read low

Q: For `COc1c(OCCCN2CCOCC2)ccc2c3n(c(=NC(=O)c4cnc(N)nc4)nc12)CCN3` + CNC(=O)c1ccc(Nc2nc(OC3CCCC3)c3c(-c4ccc5nc(C)oc5c4)c[nH]c3n2)c(OC)c1, which viability, T/C is on record?
A: 9.1%

Q: Which viability, T/C does the source give for `O=C(c1cc(Cc2n[nH]c(=O)c3ccccc23)ccc1F)N1CCN(C(=O)C2CC2)CC1` + CNC(=O)c1ccc(Nc2nc(OC3CCCC3)c3c(-c4ccc5nc(C)oc5c4)c[nH]c3n2)c(OC)c1 here?
A: 39.5%

Q: `COC1C=CCC(C)C(C)S(=O)(=O)NC(=O)c2ccc3c(c2)N(CC2CCC21)CC1(CCCc2cc(Cl)ccc21)CO3` (stereo unspecified) + CN1CCN(c2cc(C(=O)Nc3cc4cc(-c5cnn(C)c5)ccc4cn3)ccn2)CC1 was tested. Which viability, T/C did it give?
A: 1.87%

Q: `C#Cc1c(F)ccc2cc(O)cc(-c3ncc4c(N5CC6CCC(C5)N6)nc(OCC56CCCN5CC(F)C6)nc4c3F)c12` (stereo unspecified) + CNC(=O)c1ccc(Nc2nc(OC3CCCC3)c3c(-c4ccc5nc(C)oc5c4)c[nH]c3n2)c(OC)c1 was tested. Which viability, T/C did it give?
A: 13.1%

Q: How did the viability, T/C turn out when `C=C(F)C(=O)N1CCN(c2nc(OCC3CCCN3C)nc3c2CCN(c2cccc4cccc(Cl)c24)C3)CC1CC#N` (stereo unspecified) + CN1CCN(c2cc(C(=O)Nc3cc4cc(-c5cnn(C)c5)ccc4cn3)ccn2)CC1 was run?
A: 1.65%

Same assay, conditions: second compound 1 µM; first compound 0.1 µM; active compounds read low

Q: With `COc1c(OCCCN2CCOCC2)ccc2c3n(c(=NC(=O)c4cnc(N)nc4)nc12)CCN3` + CNC(=O)c1ccc(Nc2nc(OC3CCCC3)c3c(-c4ccc5nc(C)oc5c4)c[nH]c3n2)c(OC)c1 as the molecule, how does the viability, T/C read?
A: 6.05%

Q: Which viability, T/C does the source give for `O=C(c1cc(Cc2n[nH]c(=O)c3ccccc23)ccc1F)N1CCN(C(=O)C2CC2)CC1` + CNC(=O)c1ccc(Nc2nc(OC3CCCC3)c3c(-c4ccc5nc(C)oc5c4)c[nH]c3n2)c(OC)c1 here?
A: 39.7%

Q: For `COC1C=CCC(C)C(C)S(=O)(=O)NC(=O)c2ccc3c(c2)N(CC2CCC21)CC1(CCCc2cc(Cl)ccc21)CO3` (stereo unspecified) + CN1CCN(c2cc(C(=O)Nc3cc4cc(-c5cnn(C)c5)ccc4cn3)ccn2)CC1, which viability, T/C is on record?
A: 0.6%

Q: `C#Cc1c(F)ccc2cc(O)cc(-c3ncc4c(N5CC6CCC(C5)N6)nc(OCC56CCCN5CC(F)C6)nc4c3F)c12` (stereo unspecified) + CNC(=O)c1ccc(Nc2nc(OC3CCCC3)c3c(-c4ccc5nc(C)oc5c4)c[nH]c3n2)c(OC)c1 was tested. Which viability, T/C did it give?
A: 9.92%
